Peptide text beside a SMILES is read from it. * marks the point of attachment. X2 = CC(=O)N[C@@H]1[C@@H](O)[C@H](O[C@@H]2O[C@H](CO[C@]3(C(=O)O)C[C@H](O)[C@@H](NC(C)=O)[C@H]([C@H](O)[C@H](O)CO)O3)[C@H](O)[C@H](O)[C@H]2O)[C@@H](CO)O[C@H]1N*
Assays:
GLP-1 receptor [1] = target: T1, GLP-1 receptor (Homo sapiens, UniProt P43220)
Method: After being incubated at room temperature for 2 hours, the solution was filtered through a unifilter 96GF/C plate (Perkin-Elmer) pretreated with 1% polyethylenimine containing 0.5% BSA, washed with 25 mM HEPES buffer solution (pH 7.4) containing 0.5% BSA, and radioactivity remained on the filter was measured by a gamma counter (Top Counter; Perkin-Elmer).

GLP-1 receptor [2] = target: T1, GLP-1 receptor; test: Assay for production of cAMP
Method: Assay for Production of cAMP
After stirring at room temperature for an hour, the cells were lysed with Triton X-100 (final concentration: 1%).
Quantity of cAMP was determined using cAMP Femtomolar Kit (CIS Bio International). The reaction solution (1 μL) was moved to a new 384-well plate and diluted by adding 9 μL of dilution buffer. Next, each 5 μL of cAMP-XL665 solution and anti-cAMP cryptate solution of the Kit was added, the mixture was incubated at room temperature for an hour, and time-resolved fluorescence was measured using RUBYstar (BMG LABTECH).

T1 sequence (P43220 24-463, species assumed): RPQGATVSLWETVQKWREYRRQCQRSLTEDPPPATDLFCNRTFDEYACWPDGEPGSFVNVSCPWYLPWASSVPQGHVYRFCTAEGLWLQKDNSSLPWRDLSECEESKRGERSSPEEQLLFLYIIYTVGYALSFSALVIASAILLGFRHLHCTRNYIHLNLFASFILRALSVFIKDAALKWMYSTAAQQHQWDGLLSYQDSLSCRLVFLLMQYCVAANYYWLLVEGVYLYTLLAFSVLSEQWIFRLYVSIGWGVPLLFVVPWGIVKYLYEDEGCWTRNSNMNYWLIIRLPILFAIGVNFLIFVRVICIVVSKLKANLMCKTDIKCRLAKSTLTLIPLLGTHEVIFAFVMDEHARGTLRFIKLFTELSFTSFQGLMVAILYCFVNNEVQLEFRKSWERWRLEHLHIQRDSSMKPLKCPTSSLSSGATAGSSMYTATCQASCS

| IC50 (GLP-1 receptor [1]) [nM] | EC50 (GLP-1 receptor [2]) [nM] | Compound |
| --- | --- | --- |
| > 100 | 50 | CC[C@H](C)[C@H](NC(=O)[C@H](Cc1ccccc1)NC(=O)[C@H](CCC(=O)O)NC(=O)[C@H](CCCCN)NC(=O)[C@H](C)NC(=O)[C@H](C)NC(=O)[C@H](CCC(N)=O)NC(=O)CNC(=O)[C@H](CCC(=O)O)NC(=O)[C@H](CC(C)C)NC(=O)[C@H](CC(=O)N[C@@H]1O[C@H](CO)[C@@H](O[C@@H]2O[C@H](CO[C@]3(C(=O)O)C[C@H](O)[C@@H](NC(C)=O)[C@H]([C@H](O)[C@H](O)CO)O3)[C@H](O)[C@H](O)[C@H]2O)[C@H](O)[C@H]1NC(C)=O)NC(=O)[C@H](CO)NC(=O)[C@H](CO)NC(=O)[C@@H](NC(=O)[C@H](CC(=O)O)NC(=O)[C@H](CO)NC(=O)[C@@H](NC(=O)[C@H](Cc1ccccc1)NC(=O)[C@@H](NC(=O)CNC(=O)[C@H](CCC(=O)O)NC(=O)[C@H](C)NC(=O)[C@@H](N)Cc1c[nH]cn1)[C@@H](C)O)[C@@H](C)O)C(C)C)C(=O)N[C@@H](C)C(=O)N[C@@H](Cc1c[nH]c2ccccc12)C(=O)N[C@@H](CC(C)C)C(=O)N[C@H](C(=O)N[C@@H](CCCCN)C(=O)NCC(=O)N[C@@H](CCCNC(=N)N)C(N)=O)C(C)C [GL19NS6] (H-HAEGTFTSDVSSD(X2)LEGQAAKEFIAWLVKGR-NH2) |
| – | 0.09 | CC[C@H](C)[C@H](NC(=O)[C@H](Cc1ccccc1)NC(=O)[C@H](CCC(=O)O)NC(=O)[C@H](CC(N)=O)NC(=O)[C@H](C)NC(=O)[C@H](C)NC(=O)[C@H](CCC(N)=O)NC(=O)CNC(=O)[C@H](CCC(=O)O)NC(=O)[C@H](CC(C)C)NC(=O)[C@H](Cc1ccc(O)cc1)NC(=O)[C@H](CO)NC(=O)[C@H](CO)NC(=O)[C@@H](NC(=O)[C@H](CC(=O)O)NC(=O)[C@H](CO)NC(=O)[C@@H](NC(=O)[C@H](Cc1ccccc1)NC(=O)[C@@H](NC(=O)CNC(=O)[C@H](CCC(=O)O)NC(=O)[C@H](C)NC(=O)[C@@H](N)Cc1c[nH]cn1)[C@@H](C)O)[C@@H](C)O)C(C)C)C(=O)N[C@@H](C)C(=O)N[C@@H](Cc1c[nH]c2ccccc12)C(=O)N[C@@H](CC(C)C)C(=O)N[C@H](C(=O)N[C@@H](CCCCN)C(=O)NCC(=O)N[C@@H](CCCNC(=N)N)C(N)=O)C(C)C [GL26N] |
| 1 | 0.11 | CC[C@H](C)[C@H](NC(=O)[C@H](Cc1ccccc1)NC(=O)[C@H](CCC(=O)O)NC(=O)[C@H](CCCCN)NC(=O)[C@H](C)NC(=O)[C@H](C)NC(=O)[C@H](CCC(N)=O)NC(=O)CNC(=O)[C@H](CCC(=O)O)NC(=O)[C@H](CC(C)C)NC(=O)[C@H](Cc1ccc(O)cc1)NC(=O)[C@H](CO)NC(=O)[C@H](CO)NC(=O)[C@@H](NC(=O)[C@H](CC(=O)O)NC(=O)[C@H](CO)NC(=O)[C@@H](NC(=O)[C@H](Cc1ccccc1)NC(=O)[C@@H](NC(=O)CNC(=O)[C@H](CCC(=O)O)NC(=O)[C@H](C)NC(=O)[C@@H](N)Cc1c[nH]cn1)[C@@H](C)O)[C@@H](C)O)C(C)C)C(=O)N[C@@H](C)C(=O)N[C@@H](Cc1c[nH]c2ccccc12)C(=O)N[C@@H](CC(C)C)C(=O)N[C@H](C(=O)N[C@@H](CC(N)=O)C(=O)NCC(=O)N[C@@H](CCCNC(=N)N)C(N)=O)C(C)C [GL34N] |
| 0.7 | – | CC[C@H](C)[C@H](NC(=O)[C@H](Cc1ccccc1)NC(=O)[C@H](CCC(=O)O)NC(=O)[C@H](CCCCN)NC(=O)[C@H](C)NC(=O)[C@H](C)NC(=O)[C@H](CCC(N)=O)NC(=O)CNC(=O)[C@H](CCC(=O)O)NC(=O)[C@H](CC(C)C)NC(=O)[C@H](Cc1ccc(O)cc1)NC(=O)[C@H](CO)NC(=O)[C@H](CO)NC(=O)[C@@H](NC(=O)[C@H](CC(=O)O)NC(=O)[C@H](CO)NC(=O)[C@@H](NC(=O)[C@H](Cc1ccccc1)NC(=O)[C@@H](NC(=O)CNC(=O)[C@H](CCC(=O)O)NC(=O)[C@H](C)NC(=O)[C@@H](N)Cc1c[nH]cn1)[C@@H](C)O)[C@@H](C)O)C(C)C)C(=O)N[C@@H](C)C(=O)N[C@@H](Cc1c[nH]c2ccccc12)C(=O)N[C@@H](CC(C)C)C(=O)N[C@H](C(=O)N[C@@H](CC(=O)N[C@@H]1O[C@H](CO)[C@@H](O[C@@H]2O[C@H](CO[C@]3(C(=O)O)C[C@H](O)[C@@H](NC(C)=O)[C@H]([C@H](O)[C@H](O)CO)O3)[C@H](O)[C@H](O)[C@H]2O)[C@H](O)[C@H]1NC(C)=O)C(=O)NCC(=O)N[C@@H](CCCNC(=N)N)C(N)=O)C(C)C [GL34NS6] |

| Compound | IC50 (GLP-1 receptor [1]) [nM] | EC50 (GLP-1 receptor [2]) [nM] |
| --- | --- | --- |
| CC[C@H](C)[C@H](NC(=O)[C@H](Cc1ccccc1)NC(=O)[C@H](CCC(=O)O)NC(=O)[C@H](CCCCN)NC(=O)[C@H](C)NC(=O)[C@H](C)NC(=O)[C@H](CCC(N)=O)NC(=O)CNC(=O)[C@H](CCC(=O)O)NC(=O)[C@H](CC(C)C)NC(=O)[C@H](Cc1ccc(O)cc1)NC(=O)[C@H](CO)NC(=O)[C@H](CO)NC(=O)[C@@H](NC(=O)[C@H](CC(=O)O)NC(=O)[C@H](CO)NC(=O)[C@@H](NC(=O)[C@H](Cc1ccccc1)NC(=O)[C@@H](NC(=O)CNC(=O)[C@H](CCC(=O)O)NC(=O)[C@H](C)NC(=O)[C@@H](N)Cc1c[nH]cn1)[C@@H](C)O)[C@@H](C)O)C(C)C)C(=O)N[C@@H](C)C(=O)N[C@@H](Cc1c[nH]c2ccccc12)C(=O)N[C@@H](CC(C)C)C(=O)N[C@H](C(=O)N[C@@H](CSCC(=O)N[C@@H](CCC(=O)N[C@@H](CC(=O)N[C@@H]1O[C@H](CO)[C@@H](O[C@@H]2O[C@H](CO)[C@@H](O[C@@H]3O[C@H](CO[C@H]4O[C@H](CO)[C@@H](O)[C@H](O)[C@@H]4O[C@@H]4O[C@H](CO)[C@@H](O[C@@H]5O[C@H](CO[C@]6(C(=O)O)C[C@H](O)[C@@H](NC(C)=O)[C@H]([C@H](O)[C@H](O)CO)O6)[C@H](O)[C@H](O)[C@H]5O)[C@H](O)[C@H]4NC(C)=O)[C@@H](O)[C@H](O[C@H]4O[C@H](CO)[C@@H](O)[C@H](O)[C@@H]4O[C@@H]4O[C@H](CO)[C@@H](O[C@@H]5O[C@H](CO[C@]6(C(=O)O)C[C@H](O)[C@@H](NC(C)=O)[C@H]([C@H](O)[C@H](O)CO)O6)[C@H](O)[C@H](O)[C@H]5O)[C@H](O)[C@H]4NC(C)=O)[C@@H]3O)[C@H](O)[C@H]2NC(C)=O)[C@H](O)[C@H]1NC(C)=O)C(=O)O)C(=O)N[C@@H](CC(=O)N[C@@H]1O[C@H](CO)[C@@H](O[C@@H]2O[C@H](CO)[C@@H](O[C@@H]3O[C@H](CO[C@H]4O[C@H](CO)[C@@H](O)[C@H](O)[C@@H]4O[C@@H]4O[C@H](CO)[C@@H](O[C@@H]5O[C@H](CO[C@]6(C(=O)O)C[C@H](O)[C@@H](NC(C)=O)[C@H]([C@H](O)[C@H](O)CO)O6)[C@H](O)[C@H](O)[C@H]5O)[C@H](O)[C@H]4NC(C)=O)[C@@H](O)[C@H](O[C@H]4O[C@H](CO)[C@@H](O)[C@H](O)[C@@H]4O[C@@H]4O[C@H](CO)[C@@H](O[C@@H]5O[C@H](CO[C@]6(C(=O)O)C[C@H](O)[C@@H](NC(C)=O)[C@H]([C@H](O)[C@H](O)CO)O6)[C@H](O)[C@H](O)[C@H]5O)[C@H](O)[C@H]4NC(C)=O)[C@@H]3O)[C@H](O)[C@H]2NC(C)=O)[C@H](O)[C@H]1NC(C)=O)C(=O)O)C(=O)NCC(=O)N[C@@H](CCCNC(=N)N)C(N)=O)C(C)C [GL34CE2] | 20 | 3.4 |
| CC[C@H](C)[C@H](NC(=O)[C@H](Cc1ccccc1)NC(=O)[C@H](CS)NC(=O)[C@H](CCCNC(=N)N)NC(=O)[C@@H](NC(=O)[C@H](C)NC(=O)[C@H](CCC(=O)O)NC(=O)[C@H](CCC(=O)O)NC(=O)[C@H](CCC(=O)O)NC(=O)[C@H](CCSC)NC(=O)[C@H](CCC(N)=O)NC(=O)[C@H](CCCCN)NC(=O)[C@H](CO)NC(=O)[C@H](CC(C)C)NC(=O)[C@H](CC(=O)O)NC(=O)[C@H](CO)NC(=O)[C@@H](NC(=O)[C@H](Cc1ccccc1)NC(=O)[C@@H](NC(=O)CNC(=O)[C@H](CCC(=O)O)NC(=O)CNC(=O)[C@@H](N)Cc1c[nH]cn1)[C@@H](C)O)[C@@H](C)O)C(C)C)C(=O)N[C@@H](CCC(=O)O)C(=O)N[C@@H](Cc1c[nH]c2ccccc12)C(=O)N[C@@H](CC(C)C)C(=O)N[C@@H](CCCCN)C(=O)N[C@@H](CS)C(=O)NCC(=O)NCC(=O)N1CCC[C@H]1C(=O)N[C@@H](CO)C(=O)N[C@@H](CO)C(=O)NCC(=O)N[C@@H](CS)C(=O)N1CCC[C@H]1C(=O)N1CCC[C@H]1C(=O)N1CCC[C@H]1C(=O)N[C@@H](CO)C(=O)N[C@@H](CS)C(N)=O [EX21283540C] | – | 0.055 |
| CC[C@H](C)[C@H](NC(=O)[C@H](Cc1ccccc1)NC(=O)[C@H](CCC(=O)O)NC(=O)[C@H](CCCCN)NC(=O)[C@H](C)NC(=O)[C@H](C)NC(=O)[C@H](CCC(N)=O)NC(=O)CNC(=O)[C@H](CCC(=O)O)NC(=O)[C@H](CC(C)C)NC(=O)[C@H](Cc1ccc(O)cc1)NC(=O)[C@H](CO)NC(=O)[C@H](CO)NC(=O)[C@@H](NC(=O)[C@H](CC(=O)O)NC(=O)[C@H](CO)NC(=O)[C@@H](NC(=O)[C@H](Cc1ccccc1)NC(=O)[C@@H](NC(=O)CNC(=O)[C@H](CCC(=O)O)NC(=O)[C@H](C)NC(=O)[C@@H](N)Cc1c[nH]cn1)[C@@H](C)O)[C@@H](C)O)C(C)C)C(=O)N[C@@H](C)C(=O)N[C@@H](Cc1c[nH]c2ccccc12)C(=O)N[C@@H](CC(C)C)C(=O)N[C@H](C(=O)N[C@@H](CC(=O)N[C@@H]1O[C@H](CO)[C@@H](O[C@@H]2O[C@H](CO)[C@@H](O[C@@H]3O[C@H](CO[C@H]4O[C@H](CO)[C@@H](O)[C@H](O)[C@@H]4O[C@@H]4O[C@H](CO)[C@@H](O[C@@H]5O[C@H](CO[C@]6(C(=O)O)C[C@H](O)[C@@H](NC(C)=O)[C@H]([C@H](O)[C@H](O)CO)O6)[C@H](O)[C@H](O)[C@H]5O)[C@H](O)[C@H]4NC(C)=O)[C@@H](O)[C@H](O[C@H]4O[C@H](CO)[C@@H](O)[C@H](O)[C@@H]4O[C@@H]4O[C@H](CO)[C@@H](O[C@@H]5O[C@H](CO[C@]6(C(=O)O)C[C@H](O)[C@@H](NC(C)=O)[C@H]([C@H](O)[C@H](O)CO)O6)[C@H](O)[C@H](O)[C@H]5O)[C@H](O)[C@H]4NC(C)=O)[C@@H]3O)[C@H](O)[C@H]2NC(C)=O)[C@H](O)[C@H]1NC(C)=O)C(=O)NCC(=O)N[C@@H](CCCNC(=N)N)C(N)=O)C(C)C [GL34NE1] | 2.7 | – |

Source: patent US20100016547A1, “Glycosilated Peptide and Medicine Comprising It as an Effective Ingredient” (priority 2005, published 2010)
